Laboratory results as given in patent publication US6417159B1 (Queen's University at Kingston, priority 1996, dated 2002).

What was measured:
Format in all cases: cell-based, rat
PC12 cells = assay: MTT assay of mitochondrial function
Method: A colorimetric assay measuring the number and respiratory activity of surviving cells (Mossman, 1983) was used to monitor the effect of the synthetic peptides on PC12 cells. Culture plates (96-233, Flow, flat bottom) were seeded with 4,000 cells per well and received treatment identical to the cells read for neurite formation. At the indicated times, the medium was removed from the wells with a Pasteur pipette and replaced with 110 μl of RPMI+10% fetal calf serum containing 0.45 mg·ml^−1 MTT (Sigma) and the plate were returned to a humidified, 5% CO2 incubator for 4 hours. 100 μl of 0.4N HCl in isopropanol was then added to each well with trituration (approximately 50 times) to solublize the formazan. The plates were read 10 minutes later in a flow Titertek Multiskan equipped with a 570 nm filter, and the optical density values obtained were corrected for cell-free blank. In each experiment, the values are the average of at least triplicate determinations normalized to its control. The MTT dye conversion was linear with number of viable cells over the range seeded, i.e. 2000 to 10,000 cells per well.

PC12^nnr5 cells = assay: Uptake of [125I]NGF into PC12nnr5 cells; conditions: 20 pM or 0.2 nM [125I]NGF; saturating R3
Method: PC12 cells were removed from culture dishes with CMF, washed, and incubated at a concentration of 10^6 per ml in Hepes-Krebs-Ringer (HKR) buffer buffer with 1 mg·ml^−1 BSA for 90 minutes at 37° C. in the presence of 40 pM [^125I]NGF in the absence and presence of excess unlabeled NGF, and in the absence and presence of R3 peptide. Aliquots of 100 μl were removed in replicates and mircocentrifuged at 10,000×g for 1 minute. Supernatants were removed, tips were cut from the microcentrifuge tube and counted in a gamma counter. Specific binding was defined as the difference between binding of the ligand in the absence and presence of unlabeled NGF, and fractional specific binding in the absence and presence of R3 peptide was compared. Studies of [^125I]NGF uptake into PC12 and PC12^nnr5 cells were carried out in the absence and presence of 10 μM R3 peptide and following a 24-hour exposure of PC12 cultures to 10 μM R3 peptide. Cells were eposed to 20 pM or 0.2 nM [^125I]NGF for periods of time up to 240 minutes (steady state) at 37° C. The cells were then briefly acid-washed as described by Bernd and Greene (1984), and aliquots were prepared for gamma counting as described. NGF was radioiodinated as described in Sutter et al. (1979b).

TrkA = assay: NGF-mediated TrkA tyrosine phosphorylation in PC12 cells; conditions: prior to or at the time of NGF exposure
Method: FIG. 7B illustrates the influence of peptide R3 on TrkA phosphorylation. PC12 cells were treated with R3 for 30 min or 24 h and suspended in HKR buffer at a concentration of 10^7·ml^−1. NGF (50 ng·ml^−1) was added where indicated and samples incubated for 15 min at 37° C. Cells were subsequently harvested by centrifugation and the pellets dissolved in lysis buffer and immunoprecipitated for TrkA as described. Immunoprecipitated proteins were separated using 7.5% polyacrylamide gels (Laemmli) and transblotted to PVDF membrane. The membrane was processed for anti-phosphotyrosine with HRP-conjugated antibody RC-20 as described by the manufacture's literature (Transduction Laboratories Ltd.).
TrkA phosphorylation was performed by a modification of the method of Kaplan et al. (1991 a and b). PC12 cells were harvested as described and suspended at a concentration of 10^7 ml in HKR buffer. NGF (100 ng·ml^−1) was added and the cell suspension was incubated for 30 min at 37° C. and pelleted at 4° C. The cells were solublized with lysis buffer, and TrkA protein was immunoprecipitated as described. Proteins were fractionated by 7.5% SDS-PAGE, and transferred to nitrocellulose for immunoblot analysis as described (Harlow and Lane, 1988). Phosphoproteins were visualized using anti-phosphotyrosine clone 4G10 (UBI) as described in the supplier's product literature.

LDALLAALRRIQR [R3]
Mitochondrial succinate dehydrogenase activity (MTT), in words (PC12 cells): not enhanced | Rates of [125I]NGF uptake, in words (PC12^nnr5 cells): not influenced | Influence on NGF-mediated tyrosine phosphorylation of TrkA, in words (TrkA): did not consistently influence
